In assay [1] the test system is human UCB derived CD34+ cells. As to the kind of experiment: Ex-vivo expansion of CD34+ cells in short-term serum-free, cytokine supplemented culture. The assay is classed as cell-based. The conditions noted are these: for CD34+ phenotype in the expanded population: control 10-30%; for total nucleated cell expansion: not impacted vs control. On the procedure: The ability of pomalidomide to enhance the expansion of human UCB derived CD34^+ cells in a short-term serum-free, cytokine supplemented culture system was evaluated. CD34^+ progenitor cells were enriched from cryopreserved UCB units to >90% purity and seeded (10^4 CD34^+ cells) in 1 mL of growth medium, which consists of IMDM plus serum substitute BIT (BSA, recombinant human insulin and transferrin, 20%), in the presence of SCF (50 ng/mL), Flt-3 ligand (50 ng/mL), and IL-3 (10 ng/mL). Pomalidomide, dissolved in DMSO, was supplemented at 2.7 μg/mL. The culture was incubated at 37° C., 5% CO2 for 12 days, with fresh medium added at day 7. Pomalidomide-free cultures with or without DMSO (0.05% v/v) were used as controls.

For assay [2], the system named is Pomalidomide-expanded CD34+ cells. As to the kind of experiment: Cumulative colony forming units of expanded CD34+ cells. The class given is cell-based, human.
The subject of a further assay is CD34+ cells. As to the kind of experiment: Scaled-up CD34+ expansion in gas-permeable fluorocarbon culture bag. The assay is classed as cell-based, human. As for the experimental part:
CD34^+ cells were seeded in 10^4/mL pomalidomide-supplemented medium in a flexible, gas-permeable fluorocarbon culture bag (American Fluoroseal). After 7 days of incubation, the culture was centrifuged and exchanged with fresh pomalidomide-supplemented medium at three times the initial volume. By day 12, TNC and CD34^+ expansion were 350 (range: 250-700) and 200 (range: 100-450) fold, respectively (FIG. 3). Viability was 86% (range: 80-90%) by trypan blue. A total of 20 million CD34^+ cells were harvested.

The mark [3] stands for this setting: first experiment, 2.7 μg/mL, 12 days.
[4] abbreviates: day 12, seeded 10^4/mL, medium exchanged day 7 (FIG. 3).

`Nc1cccc2c1C(=O)N(C1CCC(=O)NC1=O)C2=O` (centres unmarked) [pomalidomide, 4-(Amino)-2-(2,6-dioxo(3-piperidyl))-isoindoline-1,3-dione]: the “CD38 expression on cultured cells” value is “appeared to down-regulate CD38 expression” in assay [1] (setting [3]) and “appeared to down-regulate CD38 expression” in assay [1] (second, similar experiment). The “CD38 negative fraction of expanded CD34+ cells” value in assay [1] (setting [3]) is given as 95%; in assay [1] (second, similar experiment), 97%. Further, the “CD34+ phenotype in the expanded population” value in assay [1] (setting [3]) is given as 40-60%; in assay [1] (second, similar experiment (FIG. 2)), 40-60%. For the same compound, the “CD133 level on expanded CD34+ cells” value was 15% in assay [1] (first experiment, 2.7 μg/mL, 12 days, control 40%) and 11.5% in assay [1] (second, similar experiment, control 32.3%). Moreover, the “total nucleated cell expansion” value in assay [1] (first experiment, pomalidomide 2.7 μg/mL, 12 days) is 200-350 fold; in assay [1] (second, similar experiment, 2.7 μg/mL, 12 days), 200-350 fold. Further, the “cumulative colony forming units relative to expanded controls” value in assay [2] (first experiment) is “substantial improvement”; in assay [2] (second, similar experiment) it was “substantial improvement”. Also, in the assay on CD34+ cells (day 12), the “Viability by trypan blue” value amounted to 86%. In the assay on CD34+ cells (day 12), the “total CD34+ cells harvested” value stood at 20 million. Also, the “CD34+ expansion” value with CD34+ cells (setting [4]) was 200 (range: 100-450) fold. In the assay on CD34+ cells (setting [4]), the TNC expansion was 350 (range: 250-700) fold. Further, the “ex-vivo expansion of placental derived CD34+ progenitors” value in the assay on CD34+ cells (overall conclusion) is on record as “significantly enhanced”.

Source of the values: patent US9200253B1, “Method of producing erythrocytes” (Anthrogenesis Corporation, priority 2007, dated 2015).
